According to patent US4055715A, “Method of producing 1-N-[L-(-)-α-hydroxy-γ-aminobutyryl]XK-62-2” (Abbott Laboratories, priority 1974, dated 1977):
≈ marks a conversion by molar mass, not a printed value.

Experiments:
Escherichia coli ATCC 26 = test: Agar-dilution MIC, pH 8.0 (Table 1); type: cell-based; conditions: ATCC26, E. coli ATCC 26, agar-dilution, pH 8.0, read-out: Minimum Inhibitory Concentration
[1] = tested on: Pseudomonas aeruginosa BMH 1; test: Agar-dilution MIC, pH 8.0 (Table 1); type: cell-based; conditions: BMH1, P. aeruginosa BMH 1, agar-dilution, pH 8.0, read-out: Minimum Inhibitory Concentration
Escherichia coli KY 8348 [2] = test: Agar-dilution MIC, pH 8.0 (Table 1); type: cell-based
From the text: (§1) The former bacterium inactivates kanamycins and gentamicins by adenylation, and the latter inactivates gentamicins by acetylation.

Escherichia coli KY 8327 [3] = test: Agar-dilution MIC, pH 8.0 (Table 1); type: cell-based
From the text: as §1

[4] = tested on: Pseudomonas aeruginosa BMH 1; test: Agar dilution MIC, pH 7.2 (Table 2); type: cell-based; conditions: BMH1, P. aeruginosa BMH 1, agar dilution, pH 7.2, read-out: Minimum Inhibitory Concentration
[5] = tested on: Salmonella typhosa ATCC 9992; test: Agar-dilution MIC, pH 8.0 (Table 1); type: cell-based; conditions: Salmonella enterica, pH 8, read-out: Minimum Inhibitory Concentration
[6] = tested on: strains of the aforementioned resistant bacteria; test: Protection tests against infections induced by resistant bacteria; type: in vivo
Providencia sp. 164 = test: Agar dilution MIC, pH 7.2 (Table 2); type: cell-based; conditions: Providencia sp. 164, produces gentamicin acetyltransferase Type II, read-out: Minimum Inhibitory Concentration
[7] = tested on: Staphylococcus aureus ATCC 6538P; test: Agar-dilution MIC, pH 8.0 (Table 1); type: cell-based; conditions: ATCC6538P, S. aureus ATCC 6538P, agar-dilution, pH 8.0, read-out: Minimum Inhibitory Concentration
[8] = tested on: Krebsiella pneumoniae ATCC 10031; test: Agar-dilution MIC, pH 8.0 (Table 1); type: cell-based; conditions: Klebsiella pneumoniae, ATCC10031; K. pneumoniae ATCC 10031; agar-dilution, pH 8.0; read-out: Minimum Inhibitory Concentration
[9] = tested on: Bacillus subtilis ATCC 6633; test: Agar dilution MIC, pH 7.2 (Table 2); type: cell-based; conditions: ATCC6633, B. subtilis ATCC 6633, agar dilution, pH 7.2, read-out: Minimum Inhibitory Concentration
Escherichia coli KY 8349 = test: Agar dilution MIC, pH 7.2 (Table 2); type: cell-based; conditions: KY8349, E. coli KY 8349, produces neomycin-kanamycin phosphotransferase Type I, read-out: Minimum Inhibitory Concentration
[10] = tested on: Staphylococcus aureus Smith; test: Agar dilution MIC, pH 7.2 (Table 2); type: cell-based; conditions: S. aureus Smith, agar dilution, pH 7.2, read-out: Minimum Inhibitory Concentration
[11] = tested on: Pseudomonas aeruginosa KY 8510; test: Agar dilution MIC, pH 7.2 (Table 2); type: cell-based; conditions: KY8510, P. aeruginosa KY 8510, produces kanamycin acetyltransferase, agar dilution, pH 7.2, read-out: Minimum Inhibitory Concentration
Escherichia coli KY 8327 [12] = test: Agar dilution MIC, pH 7.2 (Table 2); type: cell-based; conditions: KY8327, E. coli KY 8327, read-out: Minimum Inhibitory Concentration
Escherichia coli T-2 = test: Agar dilution MIC, pH 7.2 (Table 2); type: cell-based; conditions: T2, E. coli T-2, agar dilution, pH 7.2, read-out: Minimum Inhibitory Concentration
[13] = tested on: Klebsiella pneumoniae No. 8045; test: Agar dilution MIC, pH 7.2 (Table 2); type: cell-based; conditions: K. pneumoniae No. 8045, agar dilution, pH 7.2, read-out: Minimum Inhibitory Concentration
Proteus mirabilis 1287 = test: Agar dilution MIC, pH 7.2 (Table 2); type: cell-based; conditions: Proteus mirabilis; P. mirabilis 1287; agar dilution, pH 7.2; read-out: Minimum Inhibitory Concentration
[14] = Acute toxicity in mice, intravenous injection; conditions: mouse, in vivo
Escherichia coli T-5 = test: Agar dilution MIC, pH 7.2 (Table 2); type: cell-based; conditions: T5, E. coli T-5, agar dilution, pH 7.2, read-out: Minimum Inhibitory Concentration
[15] = tested on: Pseudomonas aeruginosa KY 8516; test: Agar dilution MIC, pH 7.2 (Table 2); type: cell-based; conditions: KY8516, P. aeruginosa KY 8516, probably produces kanamycin acetyltransferase, agar dilution, pH 7.2, read-out: Minimum Inhibitory Concentration
Sarcina lutea ATCC 9341 = test: Agar dilution MIC, pH 7.2 (Table 2); type: cell-based; conditions: Micrococcus luteus, ATCC9341; Sarcina lutea ATCC 9341; agar dilution, pH 7.2; read-out: Minimum Inhibitory Concentration
[16] = tested on: Proteus vulgaris ATCC 6897; test: microbe, parasite or virus in culture; type: cell-based; conditions: ATCC6897, P. vulgaris ATCC 6897, agar-dilution, pH 8.0, read-out: Minimum Inhibitory Concentration
[17] = tested on: Staphylococcus aureus 209 P; test: Agar dilution MIC, pH 7.2 (Table 2); type: cell-based; conditions: S. aureus 209 P, agar dilution, pH 7.2, read-out: Minimum Inhibitory Concentration
[18] = tested on: Bacillus subtilis No. 10707; test: Agar-dilution MIC, pH 8.0 (Table 1); type: cell-based; conditions: B. subtilis No. 10707, agar-dilution, pH 8.0, read-out: Minimum Inhibitory Concentration
Escherichia coli KY 8321 = test: Agar dilution MIC, pH 7.2 (Table 2); type: cell-based; conditions: KY8321, E. coli KY 8321, produces gentamicin adenyltransferase and neomycin-kanamycin phosphotransferase Type II, agar dilution, pH 7.2, read-out: Minimum Inhibitory Concentration
[19] = tested on: Escherichia coli having R factors; test: Antibacterial activity against R factor strains; type: cell-based; conditions: E. coli having R factors, resistant to known aminoglycoside antibiotics
Escherichia coli KY 8348 [20] = test: Agar dilution MIC, pH 7.2 (Table 2); type: cell-based; conditions: KY8348, E. coli KY 8348, produces gentamicin acetyltransferase Type I, read-out: Minimum Inhibitory Concentration
[21] = tested on: Pseudomonas aeruginosa KY 8511; test: Agar dilution MIC, pH 7.2 (Table 2); type: cell-based; conditions: KY8511, P. aeruginosa KY 8511, produces gentamicin acetyltransferase Type I and neomycin-kanamycin phosphotransferase Type I, agar dilution, pH 7.2, read-out: Minimum Inhibitory Concentration
Proteus vulgaris 6897 = test: Agar dilution MIC, pH 7.2 (Table 2); type: cell-based; conditions: Proteus vulgaris; P. vulgaris 6897; agar dilution, pH 7.2; read-out: Minimum Inhibitory Concentration

## CNC[C@@H]1CC[C@@H](N)[C@@H](O[C@H]2[C@H](O)[C@@H](O[C@H]3OC[C@](C)(O)[C@H](NC)[C@H]3O)[C@H](NC(=O)[C@@H](O)CCN)C[C@@H]2N)O1 [Compound IV, 1-N-[L-(-)-α-hydroxy-γ-aminobutyryl] XK-62-2]
Escherichia coli ATCC 26
  MIC: 0.004 µg/mL (≈ 0.00708 µM)
[1]
  MIC: 2.08 µg/mL (≈ 3.68 µM)
Escherichia coli KY 8348 [2]; E. coli KY 8348, from Table 1
  antibacterial activity (in words): strong anti-bacterial activity
Escherichia coli KY 8348 [2]; Escherichia coli, KY8348, E. coli KY 8348, produces gentamicin acetyltransferase Type I, agar-dilution, pH 8.0, read-out: Minimum Inhibitory Concentration
  MIC: 0.004 µg/mL (≈ 0.00708 µM)
Escherichia coli KY 8327 [3]; E. coli KY 8327, from Table 1
  antibacterial activity (in words): strong anti-bacterial activity
Escherichia coli KY 8327 [3]; Escherichia coli, KY8327, E. coli KY 8327, produces gentamicin adenyltransferase, agar-dilution, pH 8.0, read-out: Minimum Inhibitory Concentration
  MIC: 0.016 µg/mL (≈ 0.0283 µM)
[4]
  MIC: 1.56 µg/mL (≈ 2.76 µM)
[5]
  MIC: 0.008 µg/mL (≈ 0.0142 µM)
[6]; infections induced by resistant bacteria, versus gentamicin antibiotics and XK-62-2
  antibacterial activity in protection tests: much higher antibacterial activity than the gentamicin antibiotics and XK-62-2
[6]; protection tests, in vivo
  retention of the α-hydroxy-γ-aminobutyryl group in vivo: maintain the α-hydroxy-γ-aminobutyryl group in vivo
Providencia sp. 164
  MIC: 12.5 µg/mL (≈ 22.1 µM)
[7]
  MIC: 0.016 µg/mL (≈ 0.0283 µM)
[8]
  MIC: 0.008 µg/mL (≈ 0.0142 µM)
[9]
  MIC: 0.1 µg/mL (≈ 0.177 µM)
Escherichia coli KY 8349
  MIC: 0.2 µg/mL (≈ 0.354 µM)
[10]
  MIC: 0.1 µg/mL (≈ 0.177 µM)
[11]
  MIC: 3.12 µg/mL (≈ 5.53 µM)
Escherichia coli KY 8327 [12]
  MIC: 0.2 µg/mL (≈ 0.354 µM)
Escherichia coli T-2
  MIC: 0.4 µg/mL (≈ 0.708 µM)
[13]
  MIC: 0.2 µg/mL (≈ 0.354 µM)
Proteus mirabilis 1287
  MIC: 3.12 µg/mL (≈ 5.53 µM)
[14]
  LD50: 250 mg/kg
Escherichia coli T-5
  MIC: 0.4 µg/mL (≈ 0.708 µM)
[15]
  MIC: 3.12 µg/mL (≈ 5.53 µM)
Sarcina lutea ATCC 9341
  MIC: 0.4 µg/mL (≈ 0.708 µM)
[16]
  MIC: 0.065 µg/mL (≈ 0.115 µM)
[17]
  MIC: 0.1 µg/mL (≈ 0.177 µM)
[18]
  MIC: 0.004 µg/mL (≈ 0.00708 µM)
Escherichia coli KY 8321
  MIC: 0.2 µg/mL (≈ 0.354 µM)
[19]
  antibacterial activity (in words): strong anti-bacterial activity
Escherichia coli KY 8348 [20]
  MIC: 0.1 µg/mL (≈ 0.177 µM)
[21]
  MIC: 3.12 µg/mL (≈ 5.53 µM)
Proteus vulgaris 6897
  MIC: 3.12 µg/mL (≈ 5.53 µM)
